The structures appear in SMILES notation.

For this series the following is noted: dissolved in purified water (FIG. 3).

Consider `N[C@@H](CCC(=O)N[C@@H](CS)C(=O)NCC(=O)O)C(=O)O` [glutathione powder, glutathione], for which the precipitation entry was “precipitation occurred from the first day”.

The values above are taken from patent US12708602B2, “Fermentation extracts, cosmetic composition and manufacturing method of fermentation extracts” (bioMOA Medical, Inc., priority 2023, dated 2026).
